# Experimental data reported in patent publication US9932339B2, “Helquats with heteroaromatic substituents, preparation thereof, and use thereof as G-quadruplex stabilizers” (USTAV ORGANICKE CHEMIE A BIOCHEMIE AV CR, V.V.I., priority 2014, dated 2018).
# What was measured:
# [1] = system: G-quadruplex oligonucleotide F21T (human telomere); experiment: FRET melting of G-quadruplex oligonucleotide F21T with ligands; assay type: binding; conditions: for ΔTm (° C.) F21T/ds26: helquat 1 μmol·l^−1, oligonucleotide 0.2 μmol·l^−1, 50-fold excess of double-stranded competitor ds26; for ΔTm (° C.) F21T: helquat 1 μmol·l^−1, oligonucleotide 0.2 μmol·l^−1, without competitor
# Description: To determine the degree of in vitro interactions of helquats with G-quadruplex(es), the oligonucleotides containing the guanine-rich sequences of human telomere (F21T) and NHE III1 promoter region of c-myc oncogene (Fmyc27T) were used. Both oligonucleotides capable of forming an intramolecular G-quadruplex were end-labeled with suitable fluorophores so as to form donor-acceptor FRET pair (5′-FAM and 3′-TAMRA). If the oligonucleotide is folded into the structure of the G-quadruplex, donor is in close proximity of acceptor and radiationless energy transfer to the acceptor occurs. With increasing temperature of the reaction mixture G-quadruplex structure gradually denatures and thus the donor and acceptor (FAM-TAMRA) drift apart. This leads to an increase in fluorescence of donor (FAM) and a decrease in fluorescence of acceptor (TAMRA).
# The result of measurement is the curve of dependence of the intensity of fluorescence of the donor on the temperature. If the G-quadruplex is stabilized by ligand, melting temperature will increase. Melting temperature of G-quadruplex corresponds to the temperature when 50% of the original amount of the folded G-quadruplex is denatured. The measurement outcome is the difference in the melting temperatures (ΔTm) of the G-quadruplex alone and the G-quadruplex stabilized by ligand. In case of Fmyc27T experiments were performed in cacodylate buffer (10 mmol·l^−1, pH=7.2) with KCl (5 mmol·l^−1) and LiCl (95 mmol·l^−1) oligonucleotide and in case of F21T oligonucleotide in cacodylate buffer (10 mmol·l^−1, pH=7.2) with KCl (25 mmol·l^−1) and LiCl (75 mmol·l^−1).
# Both oligonucleotides were denatured for 5 minutes at 95° C. and subsequently allowed to cool to room temperature (3 hours) in the switched-off thermoblock. The final oligonucleotide concentration in the reaction mixture was 0.2 μmol·l^−1. Test helquats were present at concentrations of 1 μmol·l^−1. The total reaction volume was 30 μl. The melting temperature of the oligonucleotides alone (without the presence of helquats) under these conditions was 58.1±0.2° C. for F21T and 64.7±0.4° C. for Fmyc27T. For determining the selectivity of binding of helquats to G-quadruplex in comparison with the double-stranded DNA, 50-fold excess of double-stranded DNA ([…] unlabeled competitor ds26 forming a hairpin) is added to the reaction mixture. After the addition to the reaction mixture ds26 competes with labeled oligonucleotide (Fmyc27T or F21T) for ligand binding. […] Melting temperature of oligonucleotides alone in the presence of the competitor is 59.4±0.5° C. for F21T and 66.3° C.±0.6° C. for Fmyc27T.
# Fluorescence of FAM donor was measured using real-time PCR apparatus Opticon 2 (excitation 470-505 nm and emission 523-543 nm) in temperature increments of 0.5° C. in the range 25 to 95° C. Evaluation of the sigmoid curves of fluorescence intensity dependent on the temperature were performed in GraphPad Prism 5 (GraphPad Software, Inc., USA). Using nonlinear five parametric regression the inflection point on the curve was calculated that corresponds to the melting temperature (Tm) of the G-quadruplex under the given conditions. The values were obtained from at least three independent measurements.
# [2] = system: G-quadruplex in promoter region of the c-myc gene (NHE III1 segment); experiment: Dual luciferase analysis with plasmid pGL4.10-myc (luc2) in HGC-27 cells; assay type: cell-based, human; conditions: for inhibition at 50 µM / activity at 50 µM: Homo sapiens; for inhibition at 50 µM: HGC-27, text summary of tab. 5 (50 μmol·l^−1), read-out: inhibition of expression of firefly luciferase as compared to control; for activity at 50 µM: helquat 50 μmol · l^−1, HGC-27, firefly normalized to Renilla, 24 hours after transfection, read-out: luciferase expression relative to control (control = 100%); for Quantification of expression relative to control (%): control = 100%
# Procedure, shortened: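 HGC-27 cells were co-transfected 1:1 with pGL4.10-myc (luc2), whose firefly luciferase is driven by an 860 bp c-myc regulatory region containing the G-quadruplex-forming NHE III1 segment, and pRL-TK Renilla control, using X-tremeGENE HP DNA in OptiMEM. Compounds were added two hours post-transfection; luminescence read 24 hours after transfection was Renilla-normalized and expressed relative to control.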
structure (smiles),measurement,setting,value
"O=[N+]([O-])c1cccc2[nH]cc(/C=C/c3cc[n+]4c(c3)-c3c(ccc5c3-c3cccc[n+]3CC5)CC4)c12 (racemic) [LSA-C9-32, (rac)-(E)-2-(2-(4-nitro-1H-indol-3-yl)vinyl)-6,7,10,11-tetrahydrodipyrido[2,1-a:1′,2′-k][2,9]phenanthroline-5,12-diium trifluoromethanesulfonate]",ΔTm (° C.) F21T/ds26,[1],6.6 °C
same,ΔTm (° C.) F21T,[1],9.3 °C
same,inhibition at 50 µM,[2],> 20%
same,activity at 50 µM,[2],74%
"Cc1c(C)c2c(c3c1CC[n+]1ccc(/C=C/c4cccc5c4oc4ccccc45)cc1-3)-c1c3ccccc3cc[n+]1CC2 (racemic) [MJA-C13-8, (rac)-(E)-13-(2-(dibenzo[b,d]furan-4-yl)vinyl)-6,7-dimethyl-4,5,8,9-tetrahydroisoquinolino[1,2-a]pyrido[1,2-k][2,9]phenanthroline-3,10-diium trifluoromethanesulfonate]",ΔTm (° C.) F21T/ds26,[1],1.4 °C
same,ΔTm (° C.) F21T,[1],7.4 °C
same,Quantification of expression relative to control (%),[2]; 10 μmol · l^−1,79.3 ± 6.7%
same,Quantification of expression relative to control (%),[2]; 50 μmol · l^−1,69.8 ± 6.0%
same,Quantification of expression relative to control (%),[2]; 150 μmol · l^−1,57.9 ± 2.5%
same,inhibition at 50 µM,[2],> 40%
same,activity at 50 µM,[2],56%
"C(=C\c1cccc2c1oc1ccccc12)/c1cc[n+]2c(c1)-c1c(ccc3c1-c1c4ccccc4cc[n+]1CC3)CC2.O=S(=O)([O-])C(F)(F)F.O=S(=O)([O-])C(F)(F)F [MSB-C13-8, (E)-13-(2-(dibenzo[b,d]furan-4-yl)vinyl)-4,5,8,9-tetrahydroisoquinolino[1,2-a]pyrido[1,2-k][2,9]phenanthroline-3,10-diium trifluoromethanesulfonate]",ΔTm (° C.) F21T/ds26,[1],3.4 °C
same,ΔTm (° C.) F21T,[1],9.0 °C
"Brc1ccc2[nH]cc(/C=C/c3cc4ccccc4[n+]4c3-c3c(ccc5c3-c3cccc[n+]3CCC5)CCC4)c2c1.O=S(=O)([O-])C(F)(F)F.O=S(=O)([O-])C(F)(F)F [MSC-C9-30, 19-((E)-2-(5-bromo-1H-indol-3-yl)vinyl)-6,7,8,11,12,13-hexahydropyrido[1′″,2′″:1″,2″]azepino[4″,3″:5′,6′]benzo[1′,2′:3,4]azepino[1,2-a]quinoline-5,14-diium trifluoromethanesulfonate]",inhibition at 50 µM,[2],> 20%
same,activity at 50 µM,[2],68%
"C(=C\c1c(-c2ccccc2)[nH]c2ccccc12)/c1cc2ccccc2[n+]2c1-c1c(ccc3c1-c1cccc[n+]1CCC3)CCC2.O=S(=O)([O-])C(F)(F)F.O=S(=O)([O-])C(F)(F)F [MSC-C15-8, 19-((E)-2-(2-phenyl-1H-indol-3-yl)vinyl)-6,7,8,11,12,13-hexahydropyrido[1′″,2′″:1″,2″]azepino[4″,3″:5′,6′]benzo[1′,2′:3,4]azepino[1,2-a]quinoline-5,14-diium trifluoromethanesulfonate]",inhibition at 50 µM,[2],> 20%
same,activity at 50 µM,[2],76%
